Data as given in the NIST ThermoML archive (doi:10.1016/j.jct.2013.11.004).
± gives the expanded uncertainty stated by the source.

Conditions: DTA

SMILES | Glass transition temperature [°C]
CCC(=O)[O-].CCn1cc[n+](C)c1 [1-ethyl-3-methylimidazolium propionate] | -83.17 ± 4
CCC(=O)[O-].CCCn1cc[n+](C)c1 [1-propyl-3-methylimidazolium propionate] | -82.92 ± 4
